Among the test systems are MDA-MB-231; HOP-92; HL-60; DU-145; HOP-62; EKVX; RXF 393; MDA-N; HCT-116; NCI-H23; SK-MEL-5; K562; KM12; Malme-3M; NCI/ADR-RES; SF-539; OVCAR-3; COLO 205; MCF7; UACC-62.
Common to all, as to assay: NCI-60 cell line screen, 48 h

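Growth conditions: 96-well plates. Treatment: test compound, 48 hours, 5 concentrations. Analysis: linear interpolation between bracketing concentrations; unreached endpoints set to highest concentration. The concentration for 50% growth inhibition is given as GI50.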 Activity calls are given as the source filed them. No stated cut-off is given here; in the data, active = GI50 up to about 1.1 µM and inactive = higher. Bounds are passed on as bounds.

As for `O=C1c2ccccc2/C=C\C(c2ccccc2)=N/N1c1ccccc1Cl`, the GI50 in the test with MDA-MB-231 is 11.9 µM (inactive); in the test with HOP-92, 26.5 µM (inactive); in the test with HL-60 it was 12.7 µM (inactive); in the test on DU-145 it was 49.1 µM (inactive); with HOP-62, 23.2 µM (inactive); in the test with EKVX it was 22.5 µM (inactive). Also, the GI50 was 19.2 µM (inactive) with RXF 393; 3.44 µM (inactive) in the test with MDA-N; 28.1 µM (inactive) in the test on HCT-116; 28.8 µM (inactive) with NCI-H23; 13.4 µM (inactive) in the test on SK-MEL-5; 5.26 µM (inactive) with K562. Further, the GI50 in the test on KM12 is 11.6 µM (inactive); in the test with Malme-3M it was 23.3 µM (inactive); in the test on NCI/ADR-RES, 15.9 µM (inactive); in the test on SF-539 it was 35.7 µM (inactive); in the test with OVCAR-3 it was 27.5 µM (inactive); with COLO 205, > 10 µM (inactive). For the same compound, in the test with MCF7, the GI50 was 21.5 µM (inactive).
Turning to `CNC(=O)OCc1nc(SSC(C)(C)C)n(C)c1COC(=O)NC`, the GI50 is 2.24 µM (inactive) in the test with MDA-MB-231; 1.78 µM (inactive) with HOP-92; 0.863 µM (active) with HL-60; 19.1 µM (inactive) in the test with DU-145; 12.8 µM (inactive) in the test with HOP-62; 8.28 µM (inactive) in the test with EKVX. Besides, the GI50 in the test on UACC-62 is 1.95 µM (inactive); in the test with RXF 393, 1.45 µM (inactive); in the test on MDA-N, 2.45 µM (inactive); with HCT-116, 1.72 µM (inactive); in the test on NCI-H23, 2.71 µM (inactive); in the test with SK-MEL-5, 5.98 µM (inactive). Moreover, the GI50 was 1.94 µM (inactive) in the test with K562; 17.3 µM (inactive) in the test with KM12; 1.86 µM (inactive) in the test on Malme-3M; 5.52 µM (inactive) in the test with NCI/ADR-RES; 3.94 µM (inactive) with SF-539; 2.1 µM (inactive) with OVCAR-3. Besides, the GI50 with COLO 205 is 1.59 µM (inactive); with MCF7 it was 4.3 µM (inactive).
On to `O=C1C(C(O)(C(F)(F)F)C(F)(F)F)CCC1C(O)(C(F)(F)F)C(F)(F)F` (stereo not drawn), for which the GI50 was 0.746 µM (active) with MDA-MB-231; < 0.01 µM (active) in the test on HOP-92; 1.16 µM (inactive) in the test with HL-60; 7.96 µM (inactive) with DU-145; 0.569 µM (active) in the test on HOP-62; 8.13 µM (inactive) in the test with EKVX. Further, the GI50 in the test on UACC-62 was 1.78 µM (inactive); with RXF 393, 0.346 µM (active); in the test on MDA-N, > 36.7 µM (inactive); in the test on HCT-116, 0.556 µM (active); in the test on NCI-H23 it was 0.769 µM (active); with SK-MEL-5, 1.72 µM (inactive). Besides, the GI50 was 3.64 µM (inactive) in the test on K562; 0.946 µM (active) in the test with KM12; 1.06 µM (active) in the test on Malme-3M; 2.33 µM (inactive) with NCI/ADR-RES; 6.82 µM (inactive) with SF-539; 0.918 µM (active) in the test with OVCAR-3. For the same compound, the GI50 was 0.0481 µM (active) in the test with COLO 205 and 0.174 µM (active) in the test on MCF7.
Turning to `O=C1c2cccc([N+](=O)[O-])c2C(=O)N1c1ncn[nH]1`, the GI50 is 56.6 µM (inactive) with MDA-MB-231; 21.4 µM (inactive) in the test on HOP-92; > 100 µM (inactive) in the test with HL-60; > 100 µM (inactive) with DU-145; 38.9 µM (inactive) in the test on HOP-62; 53 µM (inactive) in the test with EKVX. For the same compound, the GI50 in the test on UACC-62 is > 100 µM (inactive); in the test with RXF 393, 63.2 µM (inactive); with MDA-N it was > 100 µM (inactive); with HCT-116, > 100 µM (inactive); in the test on NCI-H23 it was > 100 µM (inactive); in the test with SK-MEL-5, > 100 µM (inactive). In addition, the GI50 is > 100 µM (inactive) with K562; > 100 µM (inactive) in the test with KM12; > 100 µM (inactive) in the test with Malme-3M; > 100 µM (inactive) in the test with NCI/ADR-RES; 0.822 µM (active) in the test on SF-539; > 100 µM (inactive) in the test on OVCAR-3. The GI50 with COLO 205 and in the test with MCF7 was > 100 µM (inactive) in each case.
For `N=C(N)N/N=C/c1c(-c2ccc([N+](=O)[O-])cc2)nc2sc(Cl)cn12`, the GI50 was 0.262 µM (active) in the test with MDA-MB-231; 1.73 µM (inactive) with HOP-92; 1.38 µM (inactive) with HL-60; 1.11 µM (active) with DU-145; 0.635 µM (active) in the test on HOP-62; 0.611 µM (active) in the test on EKVX. In addition, the GI50 in the test with UACC-62 is 1.6 µM (inactive); in the test on RXF 393 it was 0.67 µM (active); in the test on MDA-N, 0.54 µM (active); in the test on HCT-116, 0.223 µM (active); with NCI-H23 it was 0.841 µM (active); with SK-MEL-5, 0.891 µM (active). Also, the GI50 in the test on K562 was 0.239 µM (active); in the test on KM12, 0.809 µM (active); in the test on Malme-3M, 1.47 µM (inactive); in the test on NCI/ADR-RES, 1.46 µM (inactive); in the test with SF-539 it was 1.89 µM (inactive); in the test with OVCAR-3, 1.27 µM (inactive). In addition, the results for the GI50 with COLO 205 and in the test with MCF7 were 0.658 µM (active) and 0.52 µM (active), respectively.
On to `CCCCCC(CO)C(O)(C(F)(F)F)C(F)(F)F` (stereo not drawn), for which the GI50 with MDA-MB-231, in the test with HOP-92, with HL-60, with DU-145, in the test with HOP-62 and in the test with EKVX was > 10 µM (inactive) throughout. Besides, the GI50 in the test on UACC-62, in the test on RXF 393, in the test on MDA-N, with HCT-116, with NCI-H23 and in the test with SK-MEL-5 was > 10 µM (inactive) each time. The GI50 in the test with K562, in the test with KM12, in the test on Malme-3M, in the test on NCI/ADR-RES, in the test on SF-539 and with OVCAR-3 was > 10 µM (inactive) throughout. Moreover, the GI50 with COLO 205 and in the test on MCF7 was > 10 µM (inactive) in each case.
Regarding `COC(=O)C(NC(=O)CSc1nnc(COc2ccc(Cl)cc2)n1-c1ccccc1)C(C)C` (stereo not drawn), the GI50 in the test with MDA-MB-231 was 17.4 µM (inactive); in the test with HOP-92, 21.6 µM (inactive); with HL-60 it was 16.7 µM (inactive); with DU-145, 37.3 µM (inactive); in the test on HOP-62 it was 18.6 µM (inactive); with EKVX, 23 µM (inactive). The GI50 in the test on UACC-62 was 17.8 µM (inactive); with RXF 393, 24 µM (inactive); with MDA-N, 16.2 µM (inactive); with HCT-116 it was 13 µM (inactive); with NCI-H23 it was 25.4 µM (inactive); in the test on K562, 53.8 µM (inactive). Also, the GI50 in the test on KM12 is 19.1 µM (inactive); in the test with Malme-3M it was 16.5 µM (inactive); in the test on NCI/ADR-RES it was 22.6 µM (inactive); with SF-539, 31.2 µM (inactive); in the test on OVCAR-3 it was 16.5 µM (inactive); in the test with COLO 205, 23.4 µM (inactive). For the same compound, the GI50 with MCF7 was 40.7 µM (inactive).
